What was measured:
Test in all cases: biochemical
Parameters in all cases: KINOMEscan competition binding panel, per cent of control
Conditions in all cases: read-out: %Ctrl @ 2800nM
AAK1 = AAK1 (Homo sapiens, UniProt Q2M2I8)
Outline: (§1)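 Competition binding panel (KINOMEscan) across 450 human kinases and disease-relevant mutants, run to the contractor's standard protocol. Values are % control: (test signal − positive control signal)/(negative control signal − positive control signal) × 100, with lower values indicating stronger binding.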

[1] = target: T1, ABL1(T315I)-nonphosphorylated (Homo sapiens, UniProt P00519, T315I)
T1 construct: nonphosphorylated
Outline: as §1

ACVR2B = ACVR2B (Homo sapiens, UniProt Q13705)
Outline: as §1

AKT2 = AKT2 (Homo sapiens, UniProt P31751)
Sequence of AKT2 (P31751 whole entry): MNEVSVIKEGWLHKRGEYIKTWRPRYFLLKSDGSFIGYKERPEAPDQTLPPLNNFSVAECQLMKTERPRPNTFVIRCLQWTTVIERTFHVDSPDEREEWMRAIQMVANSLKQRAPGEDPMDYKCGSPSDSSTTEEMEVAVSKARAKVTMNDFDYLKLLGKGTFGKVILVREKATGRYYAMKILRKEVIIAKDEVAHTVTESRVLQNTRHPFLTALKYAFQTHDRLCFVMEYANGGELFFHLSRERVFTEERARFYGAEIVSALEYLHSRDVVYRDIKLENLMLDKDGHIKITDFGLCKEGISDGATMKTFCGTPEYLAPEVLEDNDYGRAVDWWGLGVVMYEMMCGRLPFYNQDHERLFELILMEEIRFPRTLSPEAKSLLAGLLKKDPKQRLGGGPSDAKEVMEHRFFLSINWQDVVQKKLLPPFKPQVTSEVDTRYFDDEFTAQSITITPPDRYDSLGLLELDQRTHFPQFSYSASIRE
Outline: as §1

AURKB = AURKB (Homo sapiens, UniProt Q96GD4)
Outline: as §1

CASK = CASK (Homo sapiens, UniProt O14936)
Outline: as §1

ERK2 = target: T2, ERK2 (Homo sapiens, UniProt P28482)
T2 construct: gene MAPK1
T2 sequence (P28482 whole entry): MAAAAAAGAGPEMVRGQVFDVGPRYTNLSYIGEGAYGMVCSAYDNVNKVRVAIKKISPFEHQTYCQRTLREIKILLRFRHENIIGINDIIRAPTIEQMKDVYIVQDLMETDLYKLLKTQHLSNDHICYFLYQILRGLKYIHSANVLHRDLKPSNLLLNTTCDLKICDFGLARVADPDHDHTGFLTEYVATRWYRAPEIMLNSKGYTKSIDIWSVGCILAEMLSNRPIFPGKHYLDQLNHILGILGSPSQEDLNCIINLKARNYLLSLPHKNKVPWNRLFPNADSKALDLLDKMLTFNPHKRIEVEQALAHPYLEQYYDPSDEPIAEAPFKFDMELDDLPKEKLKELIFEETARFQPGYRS
Outline: as §1

FLT3(K663Q) = FLT3(K663Q) (Homo sapiens, UniProt P36888, K663Q)
Outline: as §1

HIPK2 = HIPK2 (Homo sapiens, UniProt Q9H2X6)
Outline: as §1

IGF1R = IGF1R (Homo sapiens, UniProt P08069)
Outline: as §1

IRAK4 = IRAK4 (Homo sapiens, UniProt Q9NWZ3)
Sequence of IRAK4 (Q9NWZ3 whole entry): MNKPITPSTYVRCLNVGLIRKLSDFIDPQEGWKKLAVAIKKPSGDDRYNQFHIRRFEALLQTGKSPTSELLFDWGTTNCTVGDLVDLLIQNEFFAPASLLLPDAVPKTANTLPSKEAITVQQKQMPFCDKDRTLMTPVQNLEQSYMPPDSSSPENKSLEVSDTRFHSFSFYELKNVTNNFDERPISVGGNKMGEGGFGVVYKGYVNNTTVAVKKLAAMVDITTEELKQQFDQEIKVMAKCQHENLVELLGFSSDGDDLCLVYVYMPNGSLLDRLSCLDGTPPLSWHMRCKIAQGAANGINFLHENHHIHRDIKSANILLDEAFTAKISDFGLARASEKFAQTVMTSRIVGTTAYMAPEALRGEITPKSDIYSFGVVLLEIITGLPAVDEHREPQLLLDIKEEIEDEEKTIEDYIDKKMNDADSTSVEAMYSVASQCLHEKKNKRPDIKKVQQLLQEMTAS
Outline: as §1

LIMK2 = LIMK2 (Homo sapiens, UniProt P53671)
Outline: as §1

MAPKAPK5 = MAPKAPK5 (Homo sapiens, UniProt Q8IW41)
Outline: as §1

MEK1 = target: T3, MEK1 (Homo sapiens, UniProt Q02750)
T3 construct: gene MAP2K1
Outline: as §1

MEK2 = target: T4, MEK2 (Homo sapiens, UniProt P36507)
T4 construct: gene MAP2K2
Outline: as §1

MEK3 = target: T5, MEK3 (Homo sapiens, UniProt P46734)
T5 construct: gene MAP2K3
Outline: as §1

PCTK2 = target: T6, PCTK2 (Homo sapiens, UniProt Q00537)
T6 construct: gene CDK17
Outline: as §1

PIK3C2B = PIK3C2B (Homo sapiens, UniProt O00750)
Outline: as §1

PIK3CA(M1043I) = PIK3CA(M1043I) (Homo sapiens, UniProt P42336, M1043I)
Outline: as §1

PIK3CD = PIK3CD (Homo sapiens, UniProt O00329)
Outline: as §1

PIM2 = PIM2 (Homo sapiens, UniProt Q9P1W9)
Sequence of PIM2 (Q9P1W9 whole entry): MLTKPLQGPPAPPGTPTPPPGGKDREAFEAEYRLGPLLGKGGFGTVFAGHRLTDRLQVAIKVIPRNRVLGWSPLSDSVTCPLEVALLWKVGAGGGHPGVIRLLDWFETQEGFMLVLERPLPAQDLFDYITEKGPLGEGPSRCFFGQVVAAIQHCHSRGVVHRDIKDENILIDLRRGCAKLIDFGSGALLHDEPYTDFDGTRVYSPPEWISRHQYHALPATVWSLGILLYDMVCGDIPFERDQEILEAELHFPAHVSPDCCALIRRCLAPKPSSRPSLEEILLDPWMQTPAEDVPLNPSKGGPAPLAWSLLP
Outline: as §1

PKMYT1 = PKMYT1 (Homo sapiens, UniProt Q99640)
Outline: as §1

ROCK1 = ROCK1 (Homo sapiens, UniProt Q13464)
Sequence of ROCK1 (Q13464 whole entry): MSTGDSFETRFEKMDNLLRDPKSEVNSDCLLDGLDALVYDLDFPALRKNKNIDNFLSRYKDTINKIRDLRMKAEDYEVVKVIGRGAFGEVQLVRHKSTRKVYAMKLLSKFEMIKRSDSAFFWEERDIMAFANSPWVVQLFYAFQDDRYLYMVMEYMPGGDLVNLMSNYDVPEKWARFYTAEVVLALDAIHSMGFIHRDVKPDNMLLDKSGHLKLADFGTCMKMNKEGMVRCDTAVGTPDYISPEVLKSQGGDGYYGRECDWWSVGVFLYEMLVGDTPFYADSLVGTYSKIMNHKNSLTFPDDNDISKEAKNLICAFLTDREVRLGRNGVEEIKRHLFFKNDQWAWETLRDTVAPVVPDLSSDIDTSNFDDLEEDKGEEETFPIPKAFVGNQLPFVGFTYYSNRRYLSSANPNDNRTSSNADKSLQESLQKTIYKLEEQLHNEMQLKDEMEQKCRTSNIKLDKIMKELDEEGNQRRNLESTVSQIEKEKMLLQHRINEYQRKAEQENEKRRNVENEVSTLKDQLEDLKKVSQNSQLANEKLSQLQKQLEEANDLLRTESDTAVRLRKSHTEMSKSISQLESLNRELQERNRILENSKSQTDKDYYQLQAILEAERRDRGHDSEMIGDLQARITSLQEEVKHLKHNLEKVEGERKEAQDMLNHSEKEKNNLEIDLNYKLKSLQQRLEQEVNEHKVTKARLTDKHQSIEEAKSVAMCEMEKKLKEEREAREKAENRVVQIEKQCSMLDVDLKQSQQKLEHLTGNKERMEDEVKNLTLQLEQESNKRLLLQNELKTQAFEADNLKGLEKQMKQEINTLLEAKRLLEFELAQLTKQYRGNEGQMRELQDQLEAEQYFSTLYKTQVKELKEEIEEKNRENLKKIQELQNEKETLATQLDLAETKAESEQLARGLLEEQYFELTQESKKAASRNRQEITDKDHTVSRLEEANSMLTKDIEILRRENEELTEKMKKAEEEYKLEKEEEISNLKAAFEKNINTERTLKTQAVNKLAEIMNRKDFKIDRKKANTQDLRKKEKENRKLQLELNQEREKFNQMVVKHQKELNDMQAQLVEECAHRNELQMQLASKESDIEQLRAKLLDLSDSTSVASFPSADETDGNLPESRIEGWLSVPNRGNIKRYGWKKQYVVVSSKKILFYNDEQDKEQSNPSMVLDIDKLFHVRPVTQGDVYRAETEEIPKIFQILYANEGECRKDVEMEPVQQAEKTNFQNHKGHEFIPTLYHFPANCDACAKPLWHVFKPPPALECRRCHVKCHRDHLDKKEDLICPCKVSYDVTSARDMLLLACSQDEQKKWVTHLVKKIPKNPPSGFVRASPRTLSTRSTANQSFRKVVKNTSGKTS
Outline: as §1

[2] = target: T7, RSK2(Kin.Dom.2-C-terminal) (Homo sapiens, UniProt P51812)
T7 construct: gene RPS6KA3; Kin.Dom.2-C-terminal
Outline: as §1

SNRK = SNRK (Homo sapiens, UniProt Q9NRH2)
Outline: as §1

TIE1 = TIE1 (Homo sapiens, UniProt P35590)
Sequence of TIE1 (P35590 whole entry): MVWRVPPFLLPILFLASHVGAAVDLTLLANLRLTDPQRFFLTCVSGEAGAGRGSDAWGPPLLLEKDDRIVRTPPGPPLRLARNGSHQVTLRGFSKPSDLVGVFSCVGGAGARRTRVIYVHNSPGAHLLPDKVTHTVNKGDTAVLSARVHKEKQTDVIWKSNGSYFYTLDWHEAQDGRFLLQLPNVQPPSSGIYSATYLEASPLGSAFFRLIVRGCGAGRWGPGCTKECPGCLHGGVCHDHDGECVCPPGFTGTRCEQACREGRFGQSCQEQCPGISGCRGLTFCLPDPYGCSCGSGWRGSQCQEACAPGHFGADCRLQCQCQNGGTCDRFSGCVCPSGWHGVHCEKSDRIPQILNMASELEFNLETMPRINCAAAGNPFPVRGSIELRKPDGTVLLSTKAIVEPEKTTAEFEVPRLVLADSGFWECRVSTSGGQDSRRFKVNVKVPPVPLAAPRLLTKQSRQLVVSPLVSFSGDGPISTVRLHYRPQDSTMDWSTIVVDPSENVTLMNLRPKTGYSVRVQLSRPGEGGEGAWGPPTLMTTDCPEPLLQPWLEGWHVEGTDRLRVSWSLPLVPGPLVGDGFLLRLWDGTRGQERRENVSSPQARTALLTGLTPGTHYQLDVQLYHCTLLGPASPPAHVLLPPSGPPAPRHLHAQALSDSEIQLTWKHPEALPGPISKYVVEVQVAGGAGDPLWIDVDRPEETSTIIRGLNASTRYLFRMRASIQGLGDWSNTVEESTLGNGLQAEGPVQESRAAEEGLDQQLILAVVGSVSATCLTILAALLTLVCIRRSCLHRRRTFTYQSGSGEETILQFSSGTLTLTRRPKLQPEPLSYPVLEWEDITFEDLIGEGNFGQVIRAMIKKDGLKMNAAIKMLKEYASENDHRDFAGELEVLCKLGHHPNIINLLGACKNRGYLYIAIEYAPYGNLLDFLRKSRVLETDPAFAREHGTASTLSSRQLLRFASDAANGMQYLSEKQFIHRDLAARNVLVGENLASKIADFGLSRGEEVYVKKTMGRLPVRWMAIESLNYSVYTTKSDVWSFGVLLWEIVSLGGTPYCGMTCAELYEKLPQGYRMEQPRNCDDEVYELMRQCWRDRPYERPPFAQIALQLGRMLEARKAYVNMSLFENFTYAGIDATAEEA
Outline: as §1

Sequence of AAK1 (Q2M2I8 whole entry): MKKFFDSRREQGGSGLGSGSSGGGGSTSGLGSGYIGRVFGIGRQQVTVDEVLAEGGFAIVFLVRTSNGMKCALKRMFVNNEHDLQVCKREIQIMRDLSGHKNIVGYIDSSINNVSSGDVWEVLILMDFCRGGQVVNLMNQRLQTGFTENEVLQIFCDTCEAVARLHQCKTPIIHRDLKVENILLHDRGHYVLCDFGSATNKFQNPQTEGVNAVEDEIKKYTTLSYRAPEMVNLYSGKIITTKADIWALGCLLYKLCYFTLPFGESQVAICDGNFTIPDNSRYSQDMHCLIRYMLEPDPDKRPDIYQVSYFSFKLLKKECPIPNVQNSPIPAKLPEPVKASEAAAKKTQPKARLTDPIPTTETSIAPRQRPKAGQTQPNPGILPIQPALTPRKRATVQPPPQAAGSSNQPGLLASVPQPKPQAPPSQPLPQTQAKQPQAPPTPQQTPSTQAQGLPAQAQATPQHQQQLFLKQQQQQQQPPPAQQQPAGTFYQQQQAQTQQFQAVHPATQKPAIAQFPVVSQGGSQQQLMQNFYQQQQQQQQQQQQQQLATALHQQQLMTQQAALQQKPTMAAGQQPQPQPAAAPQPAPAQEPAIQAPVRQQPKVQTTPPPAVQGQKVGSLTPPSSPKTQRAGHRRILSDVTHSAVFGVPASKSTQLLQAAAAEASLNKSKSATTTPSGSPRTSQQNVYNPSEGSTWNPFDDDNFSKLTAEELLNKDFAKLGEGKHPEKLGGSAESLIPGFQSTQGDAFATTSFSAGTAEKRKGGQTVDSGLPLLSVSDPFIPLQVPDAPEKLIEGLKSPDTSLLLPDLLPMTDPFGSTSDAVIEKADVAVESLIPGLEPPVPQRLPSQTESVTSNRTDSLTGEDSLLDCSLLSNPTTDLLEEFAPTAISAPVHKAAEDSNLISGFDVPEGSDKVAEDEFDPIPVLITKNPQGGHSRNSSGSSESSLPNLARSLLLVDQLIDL

## [O-][S@@+](Cc1cncs1)C(c1ccccc1)c1ccccc1 [S-CE-123, (S)-5-((Benzhydrylsulfinyl)Methyl)Thiazole]
AAK1
  remaining binding at 2.8 µM: 88%
[1]
  remaining binding at 2.8 µM: 100%
ACVR2B
  remaining binding at 2.8 µM: 100%
AKT2
  remaining binding at 2.8 µM: 87%
AURKB
  remaining binding at 2.8 µM: 78%
CASK
  remaining binding at 2.8 µM: 82%
ERK2
  remaining binding at 2.8 µM: 95%
FLT3(K663Q)
  remaining binding at 2.8 µM: 96%
HIPK2
  remaining binding at 2.8 µM: 100%
IGF1R
  remaining binding at 2.8 µM: 94%
IRAK4
  remaining binding at 2.8 µM: 94%
LIMK2
  remaining binding at 2.8 µM: 88%
MAPKAPK5
  remaining binding at 2.8 µM: 100%
MEK1
  remaining binding at 2.8 µM: 94%
MEK2
  remaining binding at 2.8 µM: 93%
MEK3
  remaining binding at 2.8 µM: 86%
PCTK2
  remaining binding at 2.8 µM: 93%
PIK3C2B
  remaining binding at 2.8 µM: 98%
PIK3CA(M1043I)
  remaining binding at 2.8 µM: 63%
PIK3CD
  remaining binding at 2.8 µM: 86%
PIM2
  remaining binding at 2.8 µM: 100%
PKMYT1
  remaining binding at 2.8 µM: 88%
ROCK1
  remaining binding at 2.8 µM: 100%
[2]
  remaining binding at 2.8 µM: 96%
SNRK
  remaining binding at 2.8 µM: 98%
TIE1
  remaining binding at 2.8 µM: 100%

Reference: article PMC10046369, “Low-Affinity/High-Selectivity Dopamine Transport Inhibition Sufficient to Rescue Cognitive Functions in the Aging Rat” (Biomolecules, 2023)
